For the assay, the target named is T1, CCKB receptor (Mus musculus, UniProt P56481).
T1 construct: The whole brains from male mice (CD1 22-25 g; Charles River) were removed; from tissue; host or cells: cerebral cortex membranes of male CD1 mice
T1 sequence (P56481 1-453): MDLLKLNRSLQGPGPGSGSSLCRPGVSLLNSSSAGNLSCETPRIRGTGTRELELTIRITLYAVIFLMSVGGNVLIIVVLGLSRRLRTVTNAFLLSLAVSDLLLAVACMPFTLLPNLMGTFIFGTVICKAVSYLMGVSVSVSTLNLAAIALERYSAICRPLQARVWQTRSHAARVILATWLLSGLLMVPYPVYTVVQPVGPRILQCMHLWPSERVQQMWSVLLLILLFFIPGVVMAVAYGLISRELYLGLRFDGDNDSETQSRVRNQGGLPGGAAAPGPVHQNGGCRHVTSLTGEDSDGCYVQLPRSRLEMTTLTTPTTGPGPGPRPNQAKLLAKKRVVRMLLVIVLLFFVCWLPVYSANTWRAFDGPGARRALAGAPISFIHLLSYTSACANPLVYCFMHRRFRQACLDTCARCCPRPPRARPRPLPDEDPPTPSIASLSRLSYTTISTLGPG
The experiment in a line: CCKB receptor radioligand binding assay in mouse cortical membranes. To be noted: [125I]-CCK8(S) 200 pM, 150 min at 21±3°; for Ki: read-out: CCKB pKi (converted). On the procedure:
The compounds of the examples were tested for binding at the CCKB receptor in mouse cortical membranes by means of a radioligand binding assay. The procedure was as follows:
The whole brains from male mice (CD1 22-25 g; Charles River) were removed and placed in ice-cold buffer (pH 7.2 @ 21±3°) of the following composition (mM); 10 HEPES, 130 NaCl, 4.7 KCl, 5 MgCl2, 1 EDTA and containing 0.25 gl^−1 bacitracin. The cortex was dissected, weighed and homogenised in 40 ml ice-cold buffer using a Teflon-in-glass homogeniser. The homogenate was centrifuged at 39800 g for 20 min […], the supernatant discarded and the pellet resuspended by homogenisation in fresh buffer. The homogenate was recentrifuged (39800 g, 20 min @ 4°) and the final pellet was resuspended in HEPES buffer to give a tissue concentration of 20 mg ml^−1 (original wet weight).
The assay was terminated by rapid filtration through pre-soaked Whatman GF/B filters using a Brandell Cell Harvester. The filters were washed (3×3 ml) with ice-cold 50 mM Tris-HCl (pH 7.4 @ 4° C.) and bound radioactivity determined by counting (1 min) in a gamma-counter.

Consider `O=C(O)c1cc(NC(=O)c2nc(C3CCCCC3)[nH]c2CC2CCCCCC2)cc(C(=O)O)c1` [Example 34, 5-[(5-Cycloheptylmethyl-2-cyclohexyl-1H-imidazole-4-carbonyl)-amino]-isophthalic Acid], for which the Ki is 1580 nM. With `COc1cccc(-c2nc(C(=O)Nc3cc(C(=O)O)cc(C(=O)O)c3)c(CC3CCCCCC3)[nH]2)c1` [Example 28, 5-[(5-Cycloheptylmethyl-2-(3-methoxy-phenyl)-1H-imidazole-4-carbonyl)-amino]-isophthalic Acid], the Ki is 1230 nM.

Turning to `O=C(O)c1ccc(NC(=O)c2cc(-c3ccccc3)[nH]c2CC23CC4CC(CC(C4)C2)C3)cc1` [Example 7, 4-[(2-Adamantan-1-ylmethyl-5-phenyl-1H-pyrrole-3-carbonyl)-amino]-benzoic Acid], the Ki is 646 nM.

As to `O=C(Nc1cc(-c2nnn[nH]2)cc(-c2nnn[nH]2)c1)c1cc(-c2ccc3ccccc3c2)[nH]c1CC1CCCCCC1` [Example 15, 2-Cycloheptylmethyl-5-naphthalen-2-yl-1H-pyrrole-3-carboxylic Acid [3,5-bis-(1H-tetrazol-5-yl)-phenyl]-amide], the Ki is 182 nM. Regarding `Cc1cc(NC(=O)c2nc(-c3ccccc3C)[nH]c2CCC23CC4CC(CC(C4)C2)C3)cc(C(=O)O)c1` [Example 247, 3-{[5-(2-Adamantan-1-yl-ethyl)-2-o-tolyl-1H-imidazole-4-carbonyl]-amino}-5-methyl-benzoic Acid], the Ki was 302 nM. `O=C(O)c1cccc(NC(=O)c2cc(-c3ccccc3)[nH]c2CCC23CC4CC(CC(C4)C2)C3)c1` [Example 19, 3-{[2-(2-Adamantan-1-yl-ethyl)-5-phenyl-1H-pyrrole-3-carbonyl]-amino}-benzoic Acid]: the Ki was 447 nM.

On to `O=C(Nc1cc(-c2nnn[nH]2)cc(-c2nnn[nH]2)c1)c1cc(-c2ccccc2)[nH]c1CCC12CC3CC(CC(C3)C1)C2` [Example 18, 2-(2-Adamantan-1-yl-ethyl)-5-phenyl-1H-pyrrole-3-carboxylic Acid [3,5-bis-(1H-tetrazol-5-yl)-phenyl]-amide], for which the Ki is 229 nM. In the case of “3-{[5-(2-Methyl-butyl)-2-o-tolyl-1H-imidazole-4-carbonyl]-amino}-benzoic Acid [Example 90]”, the “CCKB pKi” value is recorded as 5.16. On to `O=C(O)c1cccc(NC(=O)c2cc(-c3ccccc3)[nH]c2CC23CC4CC(CC(C4)C2)C3)c1` [Example 3, 3-[(2-Adamantan-1-ylmethyl-5-phenyl-1H-pyrrole-3-carbonyl)-amino]-benzoic Acid], for which the Ki is 1450 nM. Same read-out and setting: the value for `O=C(O)c1cccc(NC(=O)c2nc(-c3ccc(Cl)c(Cl)c3)[nH]c2CCC23CC4CC(CC(C4)C2)C3)c1` [Example 68, 3-{[5-(2-Adamantan-1-yl-ethyl)-2-(3,4-dichloro-phenyl)-1H-imidazole-4-carbonyl]-amino}-benzoic Acid] was 468 nM. For `O=C(Nc1cccc(-c2nnn[nH]2)c1)c1nc(C2CCCCC2)[nH]c1CCC12CC3CC(CC(C3)C1)C2` [Example 130], the Ki is 9.55 nM. As to `Cc1ccc(NC(=O)c2c(CCC34CC5CC(CC(C5)C3)C4)nc(-c3ccccc3C)n2C)cc1C(=O)O` [Example 162, 5-{[5-(2-Adamantan-1-yl-ethyl)-3-methyl-2-o-tolyl-3H-imidazole-4-carbonyl]-amino}-2-methyl-benzoic Acid], the Ki is 1660 nM. Same read-out and setting: the value for `Cn1c(-c2ccccc2)cc(C(=O)Nc2cc(C(=O)O)cc(C(=O)O)c2)c1CC12CC3CC(CC(C3)C1)C2` [Example 8, 5-[(2-Adamantan-1-ylmethyl-1-methyl-5-phenyl-1H-pyrrole-3-carbonyl)-amino]-isophthalic Acid] was 1020 nM; that for `COc1ccc(-c2nc(C(=O)Nc3cc(C(=O)O)cc(C(=O)O)c3)c(CC3CCCCCC3)[nH]2)cc1` [Example 29, 5-[(5-Cycloheptylmethyl-2-(4-methoxy-phenyl)-1H-imidazole-4-carbonyl)-amino]-isophthalic Acid] was 1480 nM. “5-[(2-Adamantan-1-ylmethyl-5-phenyl-1H-pyrrole-3-carbonyl)-amino-methyl]-isophthalic Acid [Example 9]”: the “CCKB pKi” value turned out to be 5.88. Take `Cc1ccccc1-c1nc(C(=O)N2CCC(C(=O)O)CC2)c(CCC23CC4CC(CC(C4)C2)C3)[nH]1` (racemic) [Example 94, (±)-1-[5-(2-Adamantan-1-yl-ethyl)-2-o-tolyl-1H-imidazole-4-carbonyl]-piperidine-4-carboxylic Acid]: the Ki is 5370 nM. `Cc1ccccc1-c1nc(C(=O)Nc2cccc(C(=O)O)c2)c(CCC(C)(C)C)[nH]1` [Example 91, 3-{[5-(3,3-Dimethyl-butyl)-2-o-tolyl-1H-imidazole-4-carbonyl]-amino}-benzoic Acid]: the Ki was 3800 nM. Consider `O=C(O)c1ccccc1NC(=O)c1cc(-c2ccccc2)[nH]c1CC12CC3CC(CC(C3)C1)C2` [Example 6, 2-[(2-Adamantan-1-ylmethyl-5-phenyl-1H-pyrrole-3-carbonyl)-amino]-benzoic Acid], for which the Ki was 832 nM. Same read-out and setting: the value for `CN(C)c1ccc(-c2nc(C(=O)Nc3cc(C(=O)O)cc(C(=O)O)c3)c(CC3CCCCCC3)[nH]2)cc1` [Example 31, 5-[(5-Cycloheptylmethyl-2-(4-dimethylamino-phenyl)-1H-imidazole-4-carbonyl)-amino]-isophthalic Acid] was 1660 nM; that for `O=C(O)c1cc(NC(=O)c2nc(-c3ccc4ccccc4c3)[nH]c2CCC23CC4CC(CC(C4)C2)C3)cc(C(=O)O)c1` [Example 44, 5-{[5-(2-Adamantan-1-yl-ethyl)-2-naphthalene-2-yl-1H-imidazole-4-carbonyl]-amino}-isophthalic Acid] was 120 nM. Still for that read-out and setting: the value for `Cc1ccccc1-c1nc(CCc2cccc(C(=O)O)c2)c(C(=O)NC23CC4CC(CC(C4)C2)C3)[nH]1` [Example 118, 3-{2-[5(Adamantan-1-ylcarbamoyl)-2-o-tolyl-1H-imidazole-4-yl]-ethyl}-benzoic Acid] was 776 nM. For `O=C(O)c1cccc(NC(=O)c2nc(-c3ccc4ccccc4c3)[nH]c2CCC23CC4CC(CC(C4)C2)C3)c1` [Example 45, 3-{[5-(2-Adamantan-1-yl-ethyl)-2-naphthalen-2-yl-1H-imidazole-4-carbonyl]-amino}-benzoic Acid], the Ki is 501 nM. For `O=C(O)c1cc(NC(=O)c2nc(-c3ccccc3C(F)(F)F)[nH]c2CCC2CCCCCC2)cc(C(=O)O)c1` [Example 41, 5-{[5-(2-Cycloheptyl-ethyl)-2-(2-trifluoromethyl-phenyl)-1H-imidazole-4-carbonyl]-amino}-isophthalic Acid], the Ki was 4370 nM.

As to `Cc1ccccc1-c1cc(C(=O)Nc2cccc(C(=O)O)c2)c(CCC23CC4CC(CC(C4)C2)C3)[nH]1` [Example 123, 3-{[2-(2-Adamantan-1-yl-ethyl)-5-o-tolyl-1H-pyrrole-3-carbonyl]-amino}-benzoic Acid], the Ki is 204 nM. For the molecule `O=C(O)c1cc(NC(=O)c2nc(CCc3ccccc3)[nH]c2CC2CCCCCC2)cc(C(=O)O)c1` [Example 27, 5-[(5-Cycloheptylmethyl-2-(2-phenyl-ethyl)-1H-imidazole-4-carbonyl)-amino]-isophthalic Acid], the Ki is 3550 nM. Regarding `Cc1ccccc1-c1nc(C(=O)Nc2cccc(C(=O)O)c2)c(CCC23CC4CC(CC(C4)C2)C3)o1` [Example 120, 3-{[5-(2-Adamanatan-1-yl-ethyl)-2-o-tolyl-oxazole-4-carbonyl]-amino}-benzoic Acid], the Ki was 1550 nM. Regarding `Cc1ccccc1-c1nc(C(=O)Nc2cccc(C(=O)NS(=O)(=O)c3ccccc3)c2)c(CCC23CC4CC(CC(C4)C2)C3)[nH]1` [Example 101, 5-(2-Adamantan-1-yl-ethyl)-2-o-tolyl-1H-imidazole-4-carboxylic acid (3-benzenesulfonylaminocarbonyl-phenyl)-amide], the Ki is 372 nM.

In the case of `O=C(O)c1cccc(NC(=O)c2nc[nH]c2CCC23CC4CC(CC(C4)C2)C3)c1` [Example 77, 3-{[5-(2-Adamantan-1-yl-ethyl)-1H-imidazole-4-carbonyl]-amino}-benzoic Acid], the Ki was 10000 nM.

`O=C(Nc1cc(-c2nnn[nH]2)cc(-c2nnn[nH]2)c1)c1nc(-c2ccccc2)[nH]c1CC1CCCCCC1` [Example 25, 5-Cycloheptyimethyl-2-phenyl-1H-imidazole-4-carboxylic Acid [3,5-bis-(1H-tetrazol-5-yl)-phenyl]-amide]: the Ki is 69.2 nM.

For `O=C(Nc1cccc(-c2nnn[nH]2)c1)c1nc(-c2ccccc2)[nH]c1CCC12CC3CC(CC(C3)C1)C2` [Example 49], the Ki is 182 nM.

For the origin of these results see patent US6479531B1, “Gastrin and cholecystokinin receptor ligands” (James Black Foundation Limited, priority 1998, dated 2002).
